This is an account of results in patent publication US8008346B2, “Chemotherapeutic agents for inhibition of protein translation” (The Royal University for the Advancement of Learning/McGill …, priority 2006, dated 2011).

Experiment [1] concerns the target T1, eIF4AIf (Mus musculus, UniProt P60843).
T1 construct: inferred only from the Ni-NTA purification; made in house; host or cells: Escherichia coli BL21 (DE3) codon+
Description: Helicase (unwinding) assay with RNA-1/RNA-11 duplex. The format is biochemical, murine. The note with it: 50 μM. Here is the method:
(§1) FIG. 8. Selective inhibition of eIF4A activity by hippuristanol. A. Hippuristanol inhibits eIF4AIf-mediated helicase activity. Unwinding reactions were performed with RNA-1/RNA-11 duplex and recombinant eIF4AIf or Ded1p. The presence of 50 μM hippuristanol in the reaction is indicated above the panel. […] Double-stranded RNA duplex and single-stranded RNA molecules are schematically represented to the left of the panel. […] In vitro splicing reactions were performed with the AdML pre-mRNAs as previously described (48). AdML pre-mRNA was incubated with nuclear extracts in the presence of increasing amounts of hippuristanol (2 μM [lane4], 10 μM [lane 5] and 50 μM [lane 6]). Reaction products were resolved on 15% polyacrylamide/8M urea gels and subjected to autoradiography. The position of migration of the pre-mRNA and spliced product is denoted to the right. C. Rescue of hippuristanol-induced inhibition with recombinant eIF4AIf. […] A graphical representation from three experiments is provided below. Translational efficiency was calculated relative to luciferase values obtained from control translations containing vehicle (0.5% DMSO).
(§2) Recombinant eIF4AI Purification and Assays. […] Quantifications were performed on a Fujix BAS2000 phosphoimager with a Fuji imaging screen. […]

Experiment [2] concerns in vitro splicing reactions. Description: In vitro splicing of AdML pre-mRNA in nuclear extracts. It counts as biochemical. The note with it: 2 μM, 10 μM and 50 μM. The method, then:
as §1

Experiment [3] addresses T1, eIF4AIf. The experiment can be described thus: RNA-dependent ATPase assay with recombinant eIF4AIf. The format is biochemical, murine. The note with it: 2.5 μM poly (U); relative to vehicle (0.5% DMSO). Here is the method:
FIG. 7. Effects of hippuristanol on ATP hydrolysis, ATP binding, and RNA binding activities of eIF4A. A. Hippuristanol inhibits eIF4AIf RNA-dependent ATPase activity. The rate of ATP hydrolysis as a function of hippuristanol concentration is plotted relative to the rate obtained in the presence of vehicle (0.5% DMSO). ATP hydrolysis was measured in the presence of 2.5 μM poly (U) and monitored by thin layer chromatography. […] Samples were resolved by SDS-PAGE and subjected to autoradiography. C. The RNA binding activity of eIF4AIf is inhibited by hippuristanol. Oxidized ^32P-cap labeled CAT mRNA was incubated with recombinant eIF4AIf in the absence (lane 2) or presence of ATP (lanes 1, 3-6), 0.6 mM m^7GDP (lane 3), 0.6 mM GDP (lane 4), or 50 μM hippuristanol (lane 6). Following treatment with RNase A, samples were resolved by SDS-PAGE and subjected to autoradiography. The asterisk denotes the position of migration of a ˜30 kDa contaminant in the recombinant eIF4AIf preparation used as an internal loading reference. D. The RNA binding activity of eIF4Ac is inhibited by hippuristanol. Oxidized ^32P-cap labeled CAT mRNA was incubated with 0.7 μg of native eIF4F in the absence (lane 1) or presence (lane 2) of 50 μM hippuristanol. […]
as §2

Molecules are shown by their SMILES.

T1 sequence (P60843 whole entry): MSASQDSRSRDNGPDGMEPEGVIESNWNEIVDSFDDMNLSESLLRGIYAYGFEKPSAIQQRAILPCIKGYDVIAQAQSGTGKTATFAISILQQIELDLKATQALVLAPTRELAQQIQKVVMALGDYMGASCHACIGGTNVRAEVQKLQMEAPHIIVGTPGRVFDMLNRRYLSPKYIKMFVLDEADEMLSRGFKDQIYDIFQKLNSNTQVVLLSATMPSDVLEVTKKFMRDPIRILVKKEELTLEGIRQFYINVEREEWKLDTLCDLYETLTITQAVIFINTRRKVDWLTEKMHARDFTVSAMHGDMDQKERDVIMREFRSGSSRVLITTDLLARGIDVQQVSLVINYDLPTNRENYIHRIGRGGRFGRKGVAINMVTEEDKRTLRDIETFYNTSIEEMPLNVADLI

Regarding `C[C@H]1C[C@@]2(O[C@H]3C[C@H]4[C@@H]5CC[C@H]6C[C@H](O)CC[C@]6(C)[C@H]5[C@@H](O)C[C@]4(C)[C@H]3[C@@]2(C)O)OC1(C)C` [Hippuristanol, hippuristanol], the eIF4AIf-mediated helicase activity entry on eIF4AIf [1] is on record as “inhibits”. The “in vitro splicing reactions” value in experiment [2] is given as “does not inhibit”. In addition, the “eIF4AIf RNA-dependent ATPase activity” value on eIF4AIf [3] was “inhibits”.
